ChEMBL document CHEMBL1142710, “3D-QSAR comparative molecular field analysis on opioid receptor antagonists: pooling data from different studies” (J Med Chem, 2005)
pKi: −log10 of the molar value.

Assays:
[1] = target: Delta-type opioid receptor (Rattus norvegicus, UniProt P33533); test: Binding affinity against Opioid receptor delta 1 from rat brain membranes using [3H]DADLE
[2] = target: Kappa-type opioid receptor (Cavia porcellus, UniProt P41144); test: Binding affinity against Opioid receptor kappa 1 from guinea pig brain membranes using [3H]U-69593
Mu-type opioid receptor = Mu-type opioid receptor (Rattus norvegicus, UniProt P33535); test: Binding affinity against Opioid receptor mu 1 from rat brain membranes using [3H]DAMGO
Sequence of Mu-type opioid receptor (P33535 whole entry): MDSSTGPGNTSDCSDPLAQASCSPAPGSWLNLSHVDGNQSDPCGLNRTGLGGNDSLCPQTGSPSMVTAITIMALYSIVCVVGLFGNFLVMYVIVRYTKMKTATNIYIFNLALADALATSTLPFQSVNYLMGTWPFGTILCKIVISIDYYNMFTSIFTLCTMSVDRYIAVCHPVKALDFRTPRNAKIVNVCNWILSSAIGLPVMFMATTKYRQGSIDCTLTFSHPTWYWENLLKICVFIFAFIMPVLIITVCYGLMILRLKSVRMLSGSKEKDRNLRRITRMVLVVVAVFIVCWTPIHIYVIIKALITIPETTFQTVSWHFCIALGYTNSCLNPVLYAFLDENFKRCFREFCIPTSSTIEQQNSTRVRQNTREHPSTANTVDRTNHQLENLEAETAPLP

Sequence of Delta-type opioid receptor (P33533 whole entry): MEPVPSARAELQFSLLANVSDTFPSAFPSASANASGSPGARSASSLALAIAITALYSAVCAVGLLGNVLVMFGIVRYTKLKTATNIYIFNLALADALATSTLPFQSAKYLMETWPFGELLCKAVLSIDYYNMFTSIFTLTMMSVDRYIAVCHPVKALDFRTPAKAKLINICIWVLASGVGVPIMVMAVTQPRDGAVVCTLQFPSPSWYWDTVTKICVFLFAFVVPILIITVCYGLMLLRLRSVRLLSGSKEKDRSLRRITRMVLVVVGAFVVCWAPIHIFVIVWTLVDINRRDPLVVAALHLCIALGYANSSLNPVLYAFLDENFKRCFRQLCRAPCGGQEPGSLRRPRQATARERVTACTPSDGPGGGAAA
Sequence of Kappa-type opioid receptor (P41144 whole entry): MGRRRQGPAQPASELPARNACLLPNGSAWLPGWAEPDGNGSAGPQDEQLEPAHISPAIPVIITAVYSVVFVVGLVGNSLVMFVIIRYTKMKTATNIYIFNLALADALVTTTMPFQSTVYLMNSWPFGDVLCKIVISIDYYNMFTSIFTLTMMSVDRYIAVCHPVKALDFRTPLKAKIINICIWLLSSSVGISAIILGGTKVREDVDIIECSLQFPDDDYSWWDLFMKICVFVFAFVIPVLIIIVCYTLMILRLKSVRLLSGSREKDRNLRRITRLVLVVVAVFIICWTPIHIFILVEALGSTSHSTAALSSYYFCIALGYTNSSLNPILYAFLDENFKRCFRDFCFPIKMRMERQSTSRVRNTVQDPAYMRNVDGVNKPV

## C=C(C)CN1CCC23c4c5ccc(OC)c4O[C@H]2c2oc4ccccc4c2C[C@@]3(O)C1C5 (some centres undefined)
[1]
  pKi: 7.36

## CN1CCC23c4c5ccc(O)c4O[C@H]2c2ncc(-c4ccc(Cl)c(Cl)c4)cc2C[C@H]3C1C5 (some centres undefined)
[1]
  pKi: 8.43
[2]
  pKi: 6.56
Mu-type opioid receptor
  pKi: 7.03

## Oc1ccc2c3c1O[C@H]1c4ncc(-c5ccccc5)cc4C[C@@]4(O)C(C2)N(CC2CC2)CCC314 (some centres undefined)
[1]
  pKi: 9.06
[2]
  pKi: 7.75
Mu-type opioid receptor
  pKi: 7.87

## O=C(Oc1cccc2[nH]c3c(c12)C[C@@]1(O)[C@H]2Cc4ccc(O)c5c4[C@@]1(CCN2CC1CC1)[C@@H]3O5)c1ccccc1
[1]
  pKi: 7.83
[2]
  pKi: 6.27
Mu-type opioid receptor
  pKi: 6.44

## CC(C)CN1CC[C@]23c4c5ccc(O)c4O[C@@H]2c2[nH]c4ccccc4c2C[C@@]3(O)[C@H]1C5
[1]
  pKi: 8.42
[2]
  pKi: 6.19
Mu-type opioid receptor
  pKi: 5.59

## C/C=C/CN1CC[C@]23c4c5ccc(O)c4O[C@@H]2c2[nH]c4ccccc4c2C(C)[C@H]3[C@H]1C5 (some centres undefined)
[1]
  pKi: 8.64
[2]
  pKi: 6.92
Mu-type opioid receptor
  pKi: 5.99

## CCN1CC[C@]23CC4Nc5ccccc5C4C[C@@]2(O)C1Cc1ccc(OC)c(O)c13 (some centres undefined)
[1]
  pKi: 6.16
Mu-type opioid receptor
  pKi: 6.10

## C=C(C)CN1CCC23c4c5ccc(O)c4O[C@H]2c2ncc(-c4ccc(Cl)cc4)cc2C[C@@]3(O)C1C5 (some centres undefined)
[1]
  pKi: 7.80
[2]
  pKi: 6.52

## C=C(C)CN1CC[C@]23c4c5ccc(O)c4O[C@@H]2c2[nH]c4ccccc4c2C(C)[C@H]3[C@H]1C5 (some centres undefined)
[1]
  pKi: 8.05
[2]
  pKi: 6.07
Mu-type opioid receptor
  pKi: 5.97

## Cc1nc(-c2ccccc2)c2c(n1)[C@@H]1Oc3c(O)ccc4c3C13CCN(CC1CC1)C(C4)[C@]3(O)C2 (some centres undefined)
[1]
  pKi: 6.49
[2]
  pKi: 6.25
Mu-type opioid receptor
  pKi: 6.60

## CCCCCN1CC[C@]23c4c5ccc(O)c4O[C@@H]2c2[nH]c4ccccc4c2C[C@@]3(O)[C@H]1C5
[1]
  pKi: 7.80
[2]
  pKi: 5.70
Mu-type opioid receptor
  pKi: 5.55

## CN1CC[C@]23c4c5ccc(O)c4O[C@@H]2c2[nH]c4ccccc4c2C[C@H]3[C@H]1C5
[1]
  pKi: 8.62
Mu-type opioid receptor
  pKi: 6.15

## Oc1ccc2c3c1O[C@H]1c4[nH]c5ccccc5c4C[C@@]4(O)[C@@H](C2)N(CC2CC2)CC[C@]314 [NALTRINDOLE]
[2]
  pKi: 7.57

## O[C@@]12Cc3c([nH]c4ccccc34)[C@H]3Oc4c(-c5ccccc5)ccc5c4[C@@]31CCN(CC1CC1)[C@@H]2C5
[1]
  pKi: 4.98

## Oc1ccc2c3c1O[C@H]1c4ncc(-c5ccc(Cl)cc5)cc4C[C@@]4(O)C(C2)N(CC2CC2)CCC314 (some centres undefined)
[1]
  pKi: 8.66
[2]
  pKi: 7.70
Mu-type opioid receptor
  pKi: 7.29

## CO[C@@]12CCC(=O)CC13CCN(CC1CC1)C2Cc1cccc(OCc2ccccc2)c13 (some centres undefined)
[1]
  pKi: 6.67
[2]
  pKi: 7.25
Mu-type opioid receptor
  pKi: 7.94

## CC1CN(CCCc2ccccc2)C2CC(N)CC1(c1cccc(O)c1)C2 (centres undefined)
[1]
  pKi: 7.83
[2]
  pKi: 6.91
Mu-type opioid receptor
  pKi: 8.48

## Oc1ccc2c3c1O[C@H]1c4nccc(-c5ccccc5)c4C[C@@]4(O)C(C2)N(CC2CC2)CCC314 (some centres undefined)
[1]
  pKi: 7.14
[2]
  pKi: 6.58
Mu-type opioid receptor
  pKi: 6.72

## C=CCN1CCC23c4c5ccc(O)c4O[C@H]2c2ncc(-c4ccc(Cl)cc4)cc2C[C@@]3(O)C1C5 (some centres undefined)
[1]
  pKi: 8.09
[2]
  pKi: 7.12
Mu-type opioid receptor
  pKi: 6.33

## COc1ccc2c(c1O)[C@]13CCN(CC4CC4)C(C2)[C@]1(O)CC1c2ccccc2NC1C3 (some centres undefined)
[1]
  pKi: 7.66
[2]
  pKi: 5.50
Mu-type opioid receptor
  pKi: 5.73

## Oc1cccc(-c2ccc3c4c2O[C@@H]2c5[nH]c6ccccc6c5C[C@@]5(O)[C@@H](C3)N(CC3CC3)CC[C@]425)c1
[1]
  pKi: 5.79

## C/C=C/CN1CC[C@]23c4c5ccc(O)c4O[C@@H]2c2[nH]c4ccccc4c2C[C@@]3(O)[C@H]1C5
[1]
  pKi: 8.13
[2]
  pKi: 6.02
Mu-type opioid receptor
  pKi: 5.92

## CN1CCC23c4c5ccc(O)c4O[C@H]2c2ncc(-c4ccc(Cl)cc4)cc2C[C@@]3(O)C1C5 (some centres undefined)
[1]
  pKi: 8.41
[2]
  pKi: 6.33
Mu-type opioid receptor
  pKi: 6.64

## C=C(C)CN1CCC23c4c5ccc(O)c4O[C@H]2c2oc4ccccc4c2C[C@@]3(O)C1C5 (some centres undefined)
[1]
  pKi: 8.09
[2]
  pKi: 6.24
Mu-type opioid receptor
  pKi: 5.89

## CC(C)N1CC[C@]23c4c5ccc(O)c4O[C@@H]2c2[nH]c4ccccc4c2C[C@@]3(O)[C@H]1C5
[1]
  pKi: 7.48
[2]
  pKi: 5.21

## Oc1ccc2c3c1O[C@H]1c4ncccc4C[C@@]4(O)C(C2)N(CC2CC2)CCC314 (some centres undefined)
[1]
  pKi: 9.11
[2]
  pKi: 8.06
Mu-type opioid receptor
  pKi: 8.82

## CN1CCC23c4c5ccc(O)c4O[C@H]2c2ncc(-c4ccc(Br)cc4)cc2C[C@@]3(O)C1C5 (some centres undefined)
[1]
  pKi: 8.40
[2]
  pKi: 6.36
Mu-type opioid receptor
  pKi: 6.71

## CN1CCC23c4c5ccc(O)c4O[C@H]2c2ncc(-c4ccc(Br)cc4)cc2C[C@H]3C1C5 (some centres undefined)
[1]
  pKi: 8.30
[2]
  pKi: 7.04
Mu-type opioid receptor
  pKi: 6.70

## Oc1ccc2c3c1O[C@@H]1c4[nH]c5ccc(Oc6ccccc6)cc5c4C[C@@]4(O)[C@@H](C2)N(CC2CC2)CC[C@]314
[1]
  pKi: 7.75
[2]
  pKi: 7.12
Mu-type opioid receptor
  pKi: 6.53

## Oc1ccc2c3c1O[C@@H]1c4[nH]c5cccc(-c6ccccc6)c5c4C[C@@]4(O)[C@@H](C2)N(CC2CC2)CC[C@]314
[1]
  pKi: 7.28
[2]
  pKi: 5.53
Mu-type opioid receptor
  pKi: 5.82

## CN1CCC23c4c5ccc(O)c4O[C@H]2c2ncc(-c4ccc(Cl)cc4Cl)cc2C[C@H]3C1C5 (some centres undefined)
[1]
  pKi: 8.96
[2]
  pKi: 6.39
Mu-type opioid receptor
  pKi: 7.01

## CCN1CC[C@]23CC4Nc5ccccc5C4C[C@H]2C1Cc1ccc(OC)c(O)c13 (some centres undefined)
[1]
  pKi: 6.29
[2]
  pKi: 5.44
Mu-type opioid receptor
  pKi: 5.87

## COc1ccc2c(c1O)[C@]13CCN(C)C(C2)[C@@H]1CC1c2ccccc2NC1C3 (some centres undefined)
[1]
  pKi: 7.03
Mu-type opioid receptor
  pKi: 5.55

## Cc1ccc2c3c1O[C@@H]1c4[nH]c5ccccc5c4C[C@@]4(O)[C@@H](C2)N(CC2CC2)CC[C@]314
[1]
  pKi: 7.15

## CCO[C@@]12Cc3c([nH]c4ccccc34)[C@]3(C)Oc4c(O)ccc5c4[C@@]31CCN(C)[C@@H]2C5
[2]
  pKi: 6.54

## C=C(C)CN1CC[C@]23c4c5ccc(OC)c4O[C@@H]2c2[nH]c4ccccc4c2C[C@@]3(O)[C@H]1C5
[1]
  pKi: 6.30

## C=C(C)CN1CCC23c4c5ccc(OC)c4O[C@H]2C(=O)/C(=C\c2ccccc2)C[C@@]3(O)C1C5 (some centres undefined)
[1]
  pKi: 5.47

## COc1ccc2c3c1O[C@@H]1c4[nH]c5ccccc5c4C[C@H]4[C@@H](C2)N(C)CC[C@]314
[1]
  pKi: 7.02

## C=C(C)CN1CCC23c4c5ccc(OC)c4O[C@H]2c2ncc(-c4ccc(Cl)cc4)cc2C[C@@]3(O)C1C5 (some centres undefined)
[1]
  pKi: 6.59
[2]
  pKi: 5.49

## CCCCC1c2c([nH]c3ccccc23)[C@H]2Oc3c(OC)ccc4c3[C@@]23CCN(C)[C@H](C4)[C@H]13 (some centres undefined)
[1]
  pKi: 6.43

## COc1ccc2c3c1O[C@@H]1c4[nH]c5ccccc5c4C(C)[C@H]4[C@@H](C2)N(C)CC[C@]314 (some centres undefined)
[1]
  pKi: 7.57

## C=C(C)CN1CCC23c4c5ccc(OC)c4O[C@H]2c2[nH]ncc2C[C@@]3(O)C1C5 (some centres undefined)
[1]
  pKi: 5.62
[2]
  pKi: 5.51

## C=Cc1ccc2c3c1O[C@@H]1c4[nH]c5ccccc5c4C[C@@]4(O)[C@@H](C2)N(CC2CC2)CC[C@]314
[1]
  pKi: 7.21
[2]
  pKi: 4.75

## O[C@@]12Cc3c([nH]c4ccccc34)[C@H]3Oc4c(-c5ccco5)ccc5c4[C@@]31CCN(CC1CC1)[C@@H]2C5
[1]
  pKi: 6.02

## COc1ccc2c(c1O)[C@]13CCN(C)C(C2)[C@]1(O)CC1c2ccccc2NC1C3 (some centres undefined)
[1]
  pKi: 6.66
Mu-type opioid receptor
  pKi: 5.55

## CCCCCCCN1CC[C@]23c4c5ccc(O)c4O[C@@H]2c2[nH]c4ccccc4c2C[C@@]3(O)[C@H]1C5
[1]
  pKi: 7.10
Mu-type opioid receptor
  pKi: 5.34
